Data published in US9808434B2, “Compound for treating cancer and diabetes” (CITY OF HOPE, priority 2011, dated 2017).

What was measured:
AMPK = AMPK activation in 3T3-L1 cells, Western blot; type: cell-based, mouse; details: 1 hour
Description: Activation of AMPK was associated with the phosphorylation of the α-subunit on Thr-172 of as assessed using phospho-specific antibodies (FIGS. 10A-B). AMPK activation also leads to the increased phosphorylation of the target protein acetyl-CoA carboxylase (ACC) (FIG. 10B).
Cells of each cell lines (Hela, HL-60, and 3T3-L1) were treated for 1 hour with a test compound (COH-SR4, COH-SR9, COH-SR16, or COH-SR18) at a concentration of 1 μM, 3 μM, or 5 μM, or AICAR (5-aminoimidazole-4-carboxamideriboside, an AMPK agonist used as positive control) at a concentration of 500 μM, or none of the above (the untreated cells as negative control). Total cell lysates from the untreated cells and the cells treated with a test compound or AICAR were analyzed by Western blot assay using specific antibodies against phospho-AMPK, phospho-ACC, total AMPK and total ACC.

Hs600T = assay: Colony formation assay, Hs600T; type: cell-based, human; details: 10 μM, vs untreated control
Description: Cell survival was evaluated using a standard colony-forming assay. […] After 7 or 10 days, adherent colonies were fixed, stained with 0.5% methylene blue for 30 min and colonies were counted using the Innotech Alpha Imager HP (91).

[1] = COH-SR4 in mice serum, LC-MS/MS; type: in vivo, mouse; details: 4 mg/kg b.w. oral, alternate day, 8 weeks; blood within 2 h of final dose
Description: Mice (n=3 each for control and COH-SR4 treatment) were administered either 0.2 mL corn oil or 100 μg COH-SR4/0.2 mL corn oil/mice (4 mg/kg b.w.) by oral gavage on alternate days for 8 weeks. On the last day, the blood was collected within 2 h after final dosage. To 50 μL serum was added 0.5 μL 5 μg/μL 6D-SR4 standard in DMSO and 500 μL ethyl acetate. The samples were vortexed for 1 min and then spun down in a bench-top centrifuge for 2 min. Then 400 μL of the organic layer was collected, evaporated to dryness and redisolved in 500 μL methanol for analysis. After an initial concentration test, 50 μL were taken and diluted to 2 mL with methanol for final analysis. […]
COH-SR4 and 6D-SR4 were separated by HPLC using an Agilent Zorbax 0.5×150 mm C18, 5 μm column with a flow rate of 50 μL/min and a gradient of 65% B to 95% B over 4 min, then 2 min at 95% B and 1 min back to 65% B. Buffer A was 5 mM ammonium formate and buffer B was 5 mM ammonium formate in methanol. The elute from the column was introduced into an Agilent 6410 triple quadrupole tandem mass spectrometer by electrospray ionization (ESI) through a capillary maintained at 4 kV, using 6 L/min nitrogen nebulizing gas at 350° C. and 15 psi, fragmentor voltage=190 V. The following transitions were monitored in positive ion mode: 344>127.1 and 355>130.1 (collision energy=28 V), 344>161.9 and 355>164.9 (C.E.=20 V) for COH-SR4 and 6dSR4. […]

H1417 = assay: Colony formation assay, H1417; type: cell-based, human; details: 1.5 μM
Description: Cell survival was evaluated using a standard colony-forming assay. In total, 1×10^5 cells/mL were incubated with COH-SR4 (1.5 μM or 5 μM) or elesclomol (5 μM) for 24 h, and aliquots of 50 or 100 μL were added to 60 mm size petri dishes, containing 4 mL culture medium. After 7 or 10 days, adherent colonies were fixed, stained with 0.5% methylene blue for 30 min and colonies were counted using the Innotech Alpha Imager HP (91).
The effect of COH-SR4 was first examined in a NCI panel of cancer cell lines, the results of which indicated good activity of COH-SR4 towards lung cancer (FIG. 78A). […] Values are presented as mean±SD from two separate determinations with eight replicates each (n=16) (FIG. 78B). The COH-SR4 treatment exerted a significant inhibitory effect on the survival of lung cancer cells [IC50: H1417 cells-1.2±0.2 μM, H1618 cells-1.5±0.2 μM, H358 cells-2.1±0.2 μM and H520 cells-2.4±0.3 μM]. […] Following initial screening for the anticancer activity of COH-SR4, the effect of COH-SR4 on clonogenic potential was studied. Standard colony-forming assay was performed and the colonies were counted using Innotech Alpha Imager HP. […] The effect of COH-SR4 on induction of apoptosis was further investigated. […] TUNEL assay was performed using Promega fluorescence detection kit and examined using Zeiss LSM 510 META laser-scanning fluorescence microscope with filters 520 and 620 nm. […]

hepatic genes = assay: Liver gene expression of HFD obese and db/db mice; type: in vivo, mouse; details: RT-PCR and RNA-seq
Text: Total RNA was isolated from livers of lean, vehicle or COH-SR4-treated HFD mice using standard protocols and subjected to quantitative RT-PCR using primers for key genes associated with lipid and fatty acid synthesis (Acaca, Pparg, Acly, Scd1, Srebf1, Hmgcr, Cpt1, Fasn) and gluconeogenesis (G6pc, Pck1). Livers of db/+ and db/db mice treated with vehicle or COH-SR4 were used for RNA-seq analysis. RNA isolation, purification, sequencing, library preparation and read alignments were done at the City of Hope Functional Genomics Core facility. Differential gene expression was identified from standard Partek workflow (Partek Genomics Suite v6.6, Partek, Inc) using ANOVA, with step-up FDR multiple testing correction p-value of <0.05 and 1.5× fold change. […] Databases utilized included GOTERM_BP_FAT (biological process) and Kyoto Encyclopedia of Genes and Genomes (KEGG_PATHWAY).
Total RNA was isolated from liver of control animals and HFD obese or db/db mice treated with vehicle or COH-SR4 (as described in Example 35). Relative mRNA expression (mean±SEM) of lipogenic and gluconeogenic genes were determined using real time RT-PCR and quantified using the comparative Ct method (FIG. 86A, ^#P<0.05, ^##P<0.01 vs. HFD). […] Key hepatic genes associated with lipid/fatty acid synthesis and glucose and amino acid metabolism regulated by COH-SR4 in db/db mice are shown in FIG. 86D.

Q: With O=C(Nc1cc(Cl)cc(Cl)c1)Nc1cc(Cl)cc(Cl)c1 [COH-SR4, 1,3-bis(3,5-dichlorophenyl) urea] as the molecule, how does the AMPK activation (AMPK) read?
A: activated AMPK

Q: What about the colony formation (Hs600T) of the same molecule?
A: 48±5%

Q: What about the serum concentration [1] of the same molecule?
A: 342 ± 44 µg/L

Q: And the “serum concentration (equivalent)” value [1]?
A: 1 ± 0.22 µM

Q: And the colony formation (H1417)?
A: 39±8%

Q: And the hepatic pathways affected (hepatic genes)?
A: downregulated hepatic lipogenesis and glucose metabolic pathways, while upregulating amino acid metabolism
